Experimental data taken from PMC9582125, “Two triphosphate tunnel metalloenzymes from apple exhibit adenylyl cyclase activity” (Frontiers in Plant Science, 2022).

Target: T1, HpAC1 (Hippeastrum hybrid cultivar, UniProt E1AQY1)
T1 construct: gene AC1
T1 sequence (E1AQY1 1-206): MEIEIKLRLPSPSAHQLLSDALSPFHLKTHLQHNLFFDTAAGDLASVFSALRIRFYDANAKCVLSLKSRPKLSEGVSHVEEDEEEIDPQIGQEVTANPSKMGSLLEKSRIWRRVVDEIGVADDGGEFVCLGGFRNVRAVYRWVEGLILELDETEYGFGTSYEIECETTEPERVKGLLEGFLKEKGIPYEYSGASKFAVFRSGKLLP
Assay: malachite green phosphate release
Type: biochemical
Conditions: divalent cation, pH 7.5, 30 °C; hydrolysis

In the case of `O=P(O)(O)OP(=O)(O)OP(=O)(O)O` [PPPi], the “malachite green phosphate release” value is reported as “HpAC1 could hydrolyze both organic and inorganic triphosphates like MdTTM2”.
